Data: US20090312361A1, “NOVEL PHARMACEUTICAL COMPOSITIONS FOR TREATING ACQUIRED CHRONIC PAIN AND ASSOCIATED DYSPHORIA” (priority 2004, published 2009)

Key:
[1] = tested on: neurogenic pain in the distal lower limbs, feet and digits; lower back pain; assay: Treatment of patient with severe back pain (Patient 1, case report); settings: Patient 1, oral tramadol at doses up to 500 mg per day as needed
pain = settings: cited from earlier work
[2] = cited from earlier work; for accumulation: during multiple dose treatment with tramadol
μ-opiate receptors = μ-opiate receptors (Homo sapiens, UniProt P35372); settings: cited from earlier work
μ-opiate receptors, sequence (P35372 whole entry): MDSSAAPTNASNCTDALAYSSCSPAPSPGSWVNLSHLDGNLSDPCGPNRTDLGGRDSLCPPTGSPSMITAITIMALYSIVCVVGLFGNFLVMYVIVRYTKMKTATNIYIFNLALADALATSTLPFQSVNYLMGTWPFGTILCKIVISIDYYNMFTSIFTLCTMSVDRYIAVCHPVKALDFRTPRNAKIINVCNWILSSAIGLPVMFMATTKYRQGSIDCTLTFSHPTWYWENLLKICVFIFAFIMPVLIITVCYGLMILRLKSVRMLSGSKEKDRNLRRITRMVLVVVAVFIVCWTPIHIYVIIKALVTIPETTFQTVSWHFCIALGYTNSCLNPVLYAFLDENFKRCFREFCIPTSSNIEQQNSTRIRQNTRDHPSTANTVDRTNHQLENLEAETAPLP

child = settings: 4 mg/kg of tramadol to a child; cited from earlier work
[3] = tested on: neuropathic pain (secondary peripheral distal neuropathy of both feet and legs); assay: Treatment of patient suffering from diabetic neuropathy (Patient 2, case report); assay type: in vivo, human
Description: Patient 2 was a person with a history of untreated diabetes. Secondary peripheral distal neuropathy of both feet and legs was among the patients' clinical complaints. […] The patient gradually self escalated the dosage of aspirin to 10 to 12×325 mg tablets per day. The patient then presented after self treatment for several weeks at the emergency room complaining of gastric pain and blood in the vomitus. […] The patient was stabilized through dietary intervention with antacids and released after several days.

[4] = cited from earlier work

COc1cccc(C2(O)CCCCC2CN(C)C)c1 (racemic) [tramadol, (+/−)-trans (RR,SS)-2-[(di-methylamino)methyl]-1-(3-methoxyphenyl)cyclohexanol]
reported pain range [1]: tolerable | side effects [1]: no significant side effects | duration of the analgesic effect (pain; after a single oral dose of tramadol 100 mg): about 6 hours | time to peak serum concentrations ([2]; after oral administration): ≤ 2 h | accumulation [2]: approximately 2 fold | affinity for μ-opiate receptors, fold less than codeine (μ-opiate receptors; relative to codeine): 10 fold | affinity for μ-opiate receptors, fold less than d-propoxyphene (μ-opiate receptors; relative to d-propoxyphene): 100 fold | affinity for μ-opiate receptors compared with dextromethorphan (μ-opiate receptors; relative to dextromethorphan): equivalent to dextromethorphan | affinity for μ-opiate receptors, fold less than morphine (μ-opiate receptors; relative to morphine): 6.000 fold | adverse effect after inadvertent administration (child): seizure activity

CN(C)C[C@H]1CCCC[C@]1(O)c1cccc(O)c1 [M1 derivative, O-desmethyltramadol]
analgesic potency relative to the parent drug (pain; relative to tramadol): at least twice the analgesic potency of the parent drug | accumulation [2]: approximately 2 fold

CC(=O)Oc1ccccc1C(=O)O [aspirin, acetylsalicylic acid]
diagnosis after self treatment ([3]; Patient 2, 10 to 12×325 mg tablets per day for several weeks): gastro-esophageal erosion and hemorrhage | control of neuropathic pain ([3]; Patient 2, treatment with aspirin and other NSAIDs): only marginally effective

Cn1c(=O)c2c(ncn2C)n(C)c1=O [caffeine, 3,7-dihydro-1,3,7-trimethyl-1H-purine-2,6-dione]
time to maximal plasma concentrations ([4]; after oral, rectal or parenteral administration): ≤ 1 h | half-life in plasma ([4]; in vivo): 3 to 7 h
